Measurements: ChEMBL document CHEMBL1201862, “PubChem BioAssay data set” (2004)
Activity calls are given as the source filed them.

Assays:
[1] = HEK293T cell cytotoxicity, dose response, cytotoxicity control, CellTiter-Glo luminescence, dry powder, set 2 (AID 720595); assay type: functional, cell-based; settings: HEK293
[2] = target: Heat shock protein HSP 90-alpha (Homo sapiens, UniProt P07900); assay type: functional, organism-based
[3] = HeLa cell cytotoxicity, dose response, cytotoxicity control, CellTiter-Glo luminescence, dry powder, set 2 (AID 720593); assay type: functional, cell-based
[4] = Luminescence Cell-Based Dose Response HTS to Identify Activators of Luciferase Translation or Activity in H4 […] Cells. [Related pubchem assays: 1829 (Project Summary), 1814 (Primary HTS)]; assay type: functional
[5] = HEK293 cell cytotoxicity, dose response, cytotoxicity control, dry powder samples (AID 720567); assay type: functional, cell-based
[6] = Luminescence Cell-Based Dose Confirmation HTS to Identify Activators of 5'UTR Stem-Loop Driven Alpha-Synuclein mRNA Translation in H4 Neuroglioblastoma Cells. [Related pubchem assays: 1829 (Project Summary), 1814 (Primary HTS)]; assay type: functional
[7] = system: H4; experiment: Luminescence Cell-Based Dose Response HTS to Identify Activators of 5'UTR Stem-Loop Driven Prion Protein mRNA Translation in H4 Neuroglioblastoma Cells. [Related pubchem assays: 1829 (Project Summary), 1814 (Primary HTS)]; assay type: functional; settings: Homo sapiens
[8] = target: Fructose-bisphosphate aldolase (Mycobacterium tuberculosis, UniProt P9WQA3); experiment: Fluorescence-based biochemical high throughput dose response assay for inhibitors of the fructose-bisphosphate aldolase (FBA) of M. tuberculosis.; assay type: functional
[9] = Luminescence Cell-Based Dose Confirmation to Identify Activators of 5'UTR Stem-Loop Driven Alpha-Synuclein mRNA Translation in H4 Neuroglioblastoma Cells. [Related pubchem assays: 1829 (Project Summary), 1814 (Primary HTS)]; assay type: functional
[10] = target: T1, Cysteine protease ATG4B (Homo sapiens, UniProt Q9Y4P1); assay type: functional;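 further: Fluorescence-based dose-response confirmation assay measuring inhibition of ATG4B activity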
T1 sequence (Q9Y4P1 whole entry): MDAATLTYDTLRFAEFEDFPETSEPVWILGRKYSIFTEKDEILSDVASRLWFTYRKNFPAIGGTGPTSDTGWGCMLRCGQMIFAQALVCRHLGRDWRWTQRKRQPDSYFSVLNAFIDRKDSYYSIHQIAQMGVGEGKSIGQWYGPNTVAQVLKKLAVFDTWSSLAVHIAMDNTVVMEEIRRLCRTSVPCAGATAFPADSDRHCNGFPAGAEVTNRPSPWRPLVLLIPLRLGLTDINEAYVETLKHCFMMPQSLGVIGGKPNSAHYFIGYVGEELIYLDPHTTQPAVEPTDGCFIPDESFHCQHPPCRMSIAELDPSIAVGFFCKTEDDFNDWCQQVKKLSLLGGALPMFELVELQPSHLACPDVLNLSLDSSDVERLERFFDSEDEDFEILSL

[11] = target: T2, Protein skinhead-1 (Caenorhabditis elegans, UniProt P34707); assay type: functional
T2 sequence (P34707 whole entry): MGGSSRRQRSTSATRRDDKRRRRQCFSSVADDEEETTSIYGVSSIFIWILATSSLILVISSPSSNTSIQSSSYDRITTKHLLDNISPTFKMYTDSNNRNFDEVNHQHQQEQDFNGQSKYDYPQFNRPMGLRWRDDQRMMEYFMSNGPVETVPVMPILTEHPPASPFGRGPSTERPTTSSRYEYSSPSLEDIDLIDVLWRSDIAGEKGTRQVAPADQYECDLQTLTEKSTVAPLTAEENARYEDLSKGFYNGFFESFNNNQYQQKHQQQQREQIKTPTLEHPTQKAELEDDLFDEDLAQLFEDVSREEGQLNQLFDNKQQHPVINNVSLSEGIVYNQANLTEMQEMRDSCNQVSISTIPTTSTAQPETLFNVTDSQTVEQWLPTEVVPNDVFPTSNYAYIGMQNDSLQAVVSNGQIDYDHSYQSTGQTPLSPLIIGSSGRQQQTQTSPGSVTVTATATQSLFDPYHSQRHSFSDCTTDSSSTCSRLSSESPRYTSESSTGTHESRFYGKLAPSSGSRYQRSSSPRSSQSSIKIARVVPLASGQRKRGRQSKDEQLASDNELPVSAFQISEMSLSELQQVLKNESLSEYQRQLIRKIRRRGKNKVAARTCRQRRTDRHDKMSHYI

[12] = Luminescence Cell-Based Dose Response to Identify Activators of 5'UTR Stem-Loop Driven Prion Protein mRNA Translation in H4-C Neuroglioblastoma Cells. [Related pubchem assays: 1829 (Project Summary), 1814 (Primary HTS)]; assay type: functional
[13] = Luminescence Cell-Based Dose Response to Identify Activators of Luciferase Translation or Activity in H4-C Neuroglioblastoma Cells. [Related pubchem assays: 1829 (Project Summary), 1814 (Primary HTS)]; assay type: functional
[14] = target: Phospholipase A2 (Homo sapiens, UniProt P04054); assay type: functional;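 further: confirmatory dose-response counterscreen on phospholipase A2, testing hits that came from an ultra-high-throughput screen for ATG4B inhibitors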
[15] = HEK293T cytotoxicity, dose response, cytotoxicity control for miR-122 modulator project, cell-based, inhibitor set, cherry-pick, set 2 (AID 720697); assay type: functional
[16] = T. cruzi growth inhibition in host cells, dose response, cell-based, plate reader, dry powder, set 2 (AID 652275); assay type: functional
[17] = growth inhibition of intracellular T. cruzi, dose response, cell-based, plate reader, dry powder samples (AID 651845); assay type: functional
[18] = T. cruzi intracellular amastigote growth inhibition, dose response, imaging, CA-I/72 strain, bovine embryo skeletal muscle, dry powder (AID 651885); assay type: functional, cell-based
[19] = cytotoxicity in HeLa cells, dose response, cytotoxicity control, cell-based, plate reader, dry powder (AID 651946); assay type: functional
[20] = inhibitors of non-replicating M. tuberculosis, dose response, luciferase, dry powder (AID 651619); assay type: functional; settings: Mycobacterium tuberculosis
[21] = growth inhibition of replicating M. tuberculosis, dose response, counter-screen, dry powder, IC90 (AID 651617); assay type: functional; settings: Mycobacterium tuberculosis
[22] = inhibitors of non-replicating M. tuberculosis, dose response, luciferase, dry powder (AID 651620); assay type: functional; settings: Mycobacterium tuberculosis
[23] = target: Major prion protein (Homo sapiens, UniProt P04156); assay type: functional, cell-based
[24] = cells

O=C(CSc1ccc(-c2ccccn2)nn1)Nc1ccccc1
AC50 [1]: 25.8 µM (active) | AC50 [2]: 35.3 µM (active) | AC50 [3]: > 52 µM (inactive)

COC(=O)c1cn(C(=O)c2ccc(OC)cc2)c2ccccc12
EC50 [4]: 9.72 µM (active) | AC50 [5]: > 30 µM (inactive) | EC50 [6]: > 120 µM (not active) | EC50 [7]: > 120 µM (not active)

COc1ccc2c(c1OC)C(=O)OC2Nc1nc(-c2ccc(-c3ccccc3)cc2)cs1 (stereo not given)
IC50 [8]: 6.08 µM (active) | EC50 [9]: 0.396 µM (active) | IC50 [10]: 8.28 µM (active) | IC50 [11]: 18.7 µM (active) | EC50 [4]: < 0.1 µM (active) | EC50 [12]: 0.254 µM (active) | EC50 [13]: 0.284 µM (active) | IC50 [14]: 17.1 µM (active)

CCCNC(=O)Nc1ccc2c(c1)C(=O)N(C)[C@@H]1CC[C@@H](CC(=O)NCC3CCCCC3)O[C@@H]1CO2
AC50 [15]: 0.456 µM (active)

C[C@@H]1CN([C@@H](C)CO)C(=O)c2cccc(NC(=O)c3ccncc3)c2O[C@H]1CN(C)Cc1ccc2c(c1)OCO2
AC50 [16]: 0.017 µM (active) | AC50 [17]: 0.0571 µM (active) | IC50 [18]: 0.0565 µM (active)

[O-][S+](Cc1ccccc1)c1nnc(-c2ccccc2)o1 (stereo not given)
AC50 [19]: 32.2 µM (active) | IC90 [20]: 1 µM (active) | IC90 [21]: 31 µM (active) | IC90 [22]: 1 µM (active)

Cc1cccc2c(=O)c(-c3ccc4c(c3)OCO4)c(NC(=O)c3ccco3)oc12
IC50 [23]: 9.57 µM (active) | IC50 [24]: > 138 µM (inactive)
